Type in all cases: binding
In one test the test system is methadone antibody. Briefly: Cross-reactivity of methadone sensor (capillary competitive chemiluminescent ELISA). The following applies: target analyte methadone; challenging analyte in sweat 1.6-10,000 ng/mL vs methadone-HRP 2000x; IC50 ratio Eq. (1). An excerpt: (§1) In order to develop a sensor array that can quantify the presence of multiple analytes simultaneously, it is important to examine their cross-reactivity. Using the methadone as an example, methadone was the target analyte and channels of the capillary sensor were first coated with methadone antibody. After blocking, serial concentrations of the challenging analytes, METH, amphetamine, or THC, were individually mixed with methadone-HRP and withdrawn into the capillaries. The challenging analyte molecules (e.g., METH) competed with methadone-HRP for the methadone antibody coated on the capillary surface. Cross-reactivity is calculated as follows: […]
(§2) In order to perform multiplexed detection of drugs in sweat, first the cross-reactivity of the capillary-based sensors is examined. The capillary coated with the antibody intended for detecting one particular drug (i.e., target analyte) is challenged with various concentrations of the other three drugs (i.e., challenging analytes). Here, the concentrations of 10,000 ng/mL, 5,000 ng/mL, 400 ng/mL, 80 ng/mL, and 1.6 ng/mL for the challenging analytes in sweat are used. […] One exception is the 3.1% cross-reactivity of METH sensor to amphetamine, which is due to the structural similarities between METH and amphetamine.
(§3) The final concentration of competing drug conjugates was 2000×, 4000×, 15000×, and 4000× for methadone-HRP, METH-HRP, amphetamine-HRP, and THC-HRP, respectively, in corresponding sensors.
A general note: ELISA stands for enzyme-linked immunosorbent assay.

A further test has as its system methamphetamine antibody. The test can be described thus: Cross-reactivity of METH sensor (capillary competitive chemiluminescent ELISA). The following applies: target analyte METH, challenging analyte in sweat 1.6-10,000 ng/mL vs METH-HRP 4000x, IC50 ratio Eq. (1).
Text: as §1, §2, §3

For a further test, the system named is amphetamine antibody. The test can be described thus: Cross-reactivity of amphetamine sensor (capillary competitive chemiluminescent ELISA). To be noted: target analyte amphetamine; challenging analyte in sweat 1.6-10,000 ng/mL vs amphetamine-HRP 15000x; IC50 ratio Eq. (1).
Text: as §1, §2, §3

Test [1] relates to corresponding antibody coated on capillary inner surface. Briefly: Detection of individual drugs in artificial sweat, inhibition curves (capillary competitive chemiluminescent ELISA). The following applies: y = a + b/(1+(x/x0)^p), x in ng/mL; used as calibration curve.
Test [2] relates to tetrahydrocannabinol antibody. Briefly: Cross-reactivity of THC sensor (capillary competitive chemiluminescent ELISA). The following applies: target analyte THC; challenging analyte in sweat 1.6-10,000 ng/mL vs THC-HRP 4000x; IC50 ratio Eq. (1).
Text: as §1, §2, §3

Turning to `CCCCCc1cc(O)c2c(c1)OC(C)(C)[C@@H]1CCC(C)=C[C@@H]21` [THC, tetrahydrocannabinol], the “Cross-reactivity (100%)” value with methadone antibody is on record as under 0.001%; in the test with methamphetamine antibody it was under 0.04%; in the test with amphetamine antibody, under 0.02%. Besides, the “midpoint parameter of logistic fit of inhibition curve B/B0 (%)” value in test [1] came out at 5.95 ng/mL.
Take `CCC(=O)C(CC(C)N(C)C)(c1ccccc1)c1ccccc1` (stereo not shown) [Methadone, methadone]: the “Cross-reactivity (100%)” value is under 0.04% with methamphetamine antibody, under 0.02% in the test with amphetamine antibody and under 0.4% in test [2].
For the compound `CC(N)Cc1ccccc1` (stereo not shown) [Amphetamine, amphetamine], the “Cross-reactivity (100%)” value with methadone antibody is listed as under 0.001%; in the test with methamphetamine antibody it was 3.1%; in the test on methamphetamine antibody (listed as amphetamine) it was 3.1%; in test [2], under 0.4%. Further, the “midpoint parameter of logistic fit of inhibition curve B/B0 (%)” value in test [1] was 1473.04 ng/mL.
As to `CN[C@@H](C)Cc1ccccc1` [METH, methamphetamine], the “Cross-reactivity (100%)” value is under 0.001% with methadone antibody, 0.07% in the test on amphetamine antibody and under 0.4% in test [2]. Further, the “midpoint parameter of logistic fit of inhibition curve B/B0 (%)” value in test [1] is listed as 7.63 ng/mL.

These data come from US20230051263A1, “DEVICE FOR RAPID AND QU[…] OF DRUGS OF ABUSE IN SWEAT” (THE REGENTS OF THE UNIVERSITY OF MICHIGAN, priority 2020, published 2023).
